Assay results published in patent publication US20080269298A1, “Benzimidazol-1-YL-thiophene compounds for the treatment of cancer” (priority 2002, published 2008).

Experiments:
[1] = test system: Normal Human foreskin fibroblasts (HFF); test: Methylene Blue Growth Inhibition Assay, HFF; format: cell-based; conditions: 72 h, Cell Line HFF, 3 days, read-out: MeB IC50
Method: (§1) Normal Human foreskin fibroblasts (HFF) and human colon (HCT116, RKO), lung (H460), prostate (PC3), and breast tumor (MCF7) cell lines were cultured in high glucose DMEM (Life Technologies) containing 10% fetal bovine serum (FBS) at 37° C. in a humidified 10% CO2, 90% air incubator. Cells were harvested using trypsin/EDTA, counted using a haemocytometer, and plated in 100 μl of the appropriate media, at the following densities, in a 96-well tissue culture plate (Falcon 3075): HFF 5,000 cells/well, HCT116 3,000 cells/well, RKO 2,500 cells/well, H460 2,000 cells/well, PC3 8,000 cells/well, MCF7 4,000 cells/well. The next day, compounds were diluted in DMEM containing 100 μg/ml gentamicin, at twice the final required concentration, from 10 mM stock solutions in DMSO. 100μ/well of these dilutions were added to the 100 μl of media currently on the cell plates. Medium containing 0.6% DMSO was added to control wells. Compounds diluted in DMEM were added to all cell lines. The final concentration of DMSO in all wells was 0.3%. Cells were incubated at 37° C., 10% CO2 for 3 days. Medium was removed by aspiration. Cell biomass was estimated by staining cells with […] per well methylene blue (Sigma M9140, 0.5% in 50:50 ethanol:water), and incubation at room temperature for at least 30 minutes. Stain was removed, and the plates rinsed under a gentle stream of water, and air-dried. To release stain from the cells 100 μl of solubilization solution was added (1% N-lauroyl sarcosine, Sodium salt, Sigma L5125, in PBS), and plates were shaken gently for about 30 minutes. Optical density at 620 nm was measured on a microplate reader. Percent inhibition of cell growth was calculated relative to vehicle treated control wells. Concentration of compound that inhibits 50% of cell growth (IC50) was interpolated using nonlinear regression (Levenberg-Marquardt) and the equation, y=Vmax*(1-(x/(K+x)))+Y2, where “K” was equal to the IC50. In Table 1, +=10−>30 uM; ++=1−10 uM: +++=<1 uM.

[2] = test system: prostate (PC3) tumor cell line; test: Methylene Blue Growth Inhibition Assay, PC3; format: cell-based; conditions: Homo sapiens, 72 h; Cell Line PC3, 3 days; read-out: MeB IC50
Method: as §1

[3] = test system: colon (HCT116) tumor cell line; test: Methylene Blue Growth Inhibition Assay, HCT116; format: cell-based; conditions: Homo sapiens, HCT-116, 72 h; Cell Line HCT116, 3 days; read-out: MeB IC50
Method: as §1

PLK1 kinase domain = biological target: T1, PLK1 kinase domain (Homo sapiens, UniProt P53350); test: Assay for Inhibition of PLK1 (SPA enzyme activity); format: biochemical; conditions: 2 μM ATP, read-out: Ave pIC50 PLK Enzyme Inhibition (converted)
T1 construct: made in house; host or cells: baculovirus-infected T. ni insect cells
Method: All procedures were performed at 4° C. Cells were lysed in so mM HEPES, 200 mM NaCl, so mM imidazole, 5% glycerol; pH 7.5. The homogenate was centrifuged at 14K rpm in a SLA-1500 rotor for 1 hr and the supernatant filtered through a 1.2 micron filter. The supernatant was loaded onto a Nickel chelating Sepharose (Amersham Pharmacia) column and washed with lysis buffer. Protein was eluted using 20%, 30% and 100% buffer B steps where buffer B is 50 mM HEPES, 200 mM NaCl, 300 mM imidazole, 5% glycerol; pH 7.5. Fractions containing PLK were determined by SDS-PAGE. Fractions containing PLK were diluted five-fold with so mM HEPES, 1 mM DTT, 5% glycerol; pH 7.5, then loaded on an SP Sepharose (Amersham Pharmacia) column. After washing the column with so mM HEPES, 1 mM DTT, 5% glycerol; pH 7.5, PLK was step eluted with so mM HEPES, 1 mM DTT, 500 mM NaCl; 5% glycerol; pH 7.5. PLK was concentrated using a 10 kDa molecular weight cutoff membrane and then loaded onto a Superdex 200 gel filtration (Amersham Pharmacia) column equilibrated in 25 mM HEPES, 1 mM DTT, 500 mM NaCl, 5% glycerol; pH 7.5. Fractions containing PLK were determined by SDS-PAGE. PLK was pooled, aliquoted and stored at −80° C. Samples were quality controlled using mass spectrometry, N-terminal sequencing and amino acid analysis.
B. Enzyme activity+/−inhibitors was determined as follows:
Compounds were added to the plate (1 μl in […]). […] Reaction Mix B is prepared as follows at 4° C.: • Reaction Mix B (Enzyme Mix) • 25 mM HEPES, pH 7.2 • 15 mM MgCl2 • 0.15 mg/ml BSA • 2 mM DTT • 2-10 nM PLK1 kinase domain
Reaction Mix A (20 μl) is added per well. Reaction Mix B (20 μl) is added per well. Incubate 1.5 hrs. at RT. The enzymatic reaction is stopped with 175 μl of SPA/EDTA bead mix (29 mM EDTA, 2.5 mg/ml Streptavidin-coated SPA in Standard Dulbecco's PBS (without Mg^2+ and Ca^2+), 60 μM ATP). Plates are sealed spun (after a 1 hr incubation at RT) at 1,000×g for 7 min or settled overnight, then plates counted in Packard TopCount for 30 seconds/well.

[4] = test system: colon (RKO) tumor cell line; test: Methylene Blue Growth Inhibition Assay, RKO; format: cell-based; conditions: Homo sapiens, 72 h, 3 days, read-out: MeB IC50
Method: as §1

[5] = test system: lung (H460) tumor cell line; test: Methylene Blue Growth Inhibition Assay, H460; format: cell-based; conditions: Homo sapiens, NCI-H460, 72 h; Cell Line H460, 3 days; read-out: MeB IC50
Method: as §1

[6] = test system: breast tumor (MCF7) cell line; test: Methylene Blue Growth Inhibition Assay, MCF7; format: cell-based; conditions: Homo sapiens, 72 h; Cell Line MCF7, 3 days; read-out: MeB IC50
Method: as §1

T1 sequence (P53350 21-346): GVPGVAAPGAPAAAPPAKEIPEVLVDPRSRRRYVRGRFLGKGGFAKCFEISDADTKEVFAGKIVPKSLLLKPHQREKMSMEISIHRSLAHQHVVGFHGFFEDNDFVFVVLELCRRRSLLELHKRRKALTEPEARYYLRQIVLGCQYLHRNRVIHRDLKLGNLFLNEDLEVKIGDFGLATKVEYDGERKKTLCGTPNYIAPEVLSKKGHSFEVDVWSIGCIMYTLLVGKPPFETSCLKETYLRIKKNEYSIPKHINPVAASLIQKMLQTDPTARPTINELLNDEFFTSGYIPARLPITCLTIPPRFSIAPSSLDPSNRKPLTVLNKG

SMILES | IC50 [1] | IC50 [2] | IC50 [3] | IC50 (PLK1 kinase domain) | IC50 [4] | IC50 [5] | IC50 [6]
COc1cc2ncn(-c3cc(OCc4ccccc4C(F)(F)F)c(C(N)=O)s3)c2cc1OC [Example 63, 5-(5,6-Dimethoxy-1H-benzimidazol-1-yl)-3-{[2-(trifluoromethyl)-benzyl]oxy}thiophene-2-carboxamide] | 1 to 10 µM | 1 to 10 µM | < 1 µM | < 0.1 µM | < 1 µM | < 1 µM | < 1 µM
Cc1ccccc1COc1cc(-n2cnc3ccc(Cl)cc32)sc1C(=O)O [Example 35, 5-(6-Chloro-1H-benzimidazol-1-yl)-3-[(2-methylbenzyl)oxy]thiophene-2-carboxylic acid] | > 10 µM | > 10 µM | > 10 µM | < 0.1 µM | > 10 µM | > 10 µM | > 10 µM
COc1cc2ncn(-c3cc(OCc4ccccc4C=O)c(C(N)=O)s3)c2cc1OC [Example 110, 5-(5,6-Dimethoxy-1H-benzimidazol-1-yl)-3-[(2-formylbenzyl)oxy]thiophene-2-carboxamide] | > 10 µM | 1 to 10 µM | < 1 µM | < 0.1 µM | < 1 µM | 1 to 10 µM | 1 to 10 µM
NC(=O)c1sc(-n2cnc3ccccc32)cc1NS(=O)(=O)c1ccccc1 [Example 132, 5-(1H-Benzimidazol-1-yl)-3-[(phenylsulfonyl)amino]thiophene-2-carboxamide] | > 10 µM | > 10 µM | > 10 µM | < 0.1 µM | > 10 µM | > 10 µM | > 10 µM
COC(=O)c1sc(-n2cnc3cc(OC)c(OC)cc32)cc1OS(=O)(=O)C(F)(F)F [Example 150, Methyl 5-(5,6-dimethoxy-1H-benzimidazol-1-yl)-3-{[(trifluoromethyl)sulfonyl]oxy}thiophene-2-carboxylate] | > 10 µM | > 10 µM | > 10 µM | 0.1 to 10 µM | > 10 µM | > 10 µM | > 10 µM
O=C(O)c1sc(-n2cnc3cc(Cl)c(Cl)cc32)cc1OCc1ccsc1 [Example 79] | > 10 µM | > 10 µM | > 10 µM | < 0.1 µM | > 10 µM | > 10 µM | > 10 µM
Cc1cccc(COc2cc(-n3cnc4ccccc43)sc2C(N)=O)c1 [Example 13, 5-(1H-Benzimidazol-1-yl)-3-[(3-methylbenzyl)oxy]-2-thiophenecarboxamide] |  |  |  | < 0.1 µM |  |  | 
COc1cc2ncn(-c3cc(OCc4ccccc4C(F)(F)F)c(C(=O)O)s3)c2cc1OC [Example 75] | > 10 µM | > 10 µM | 1 to 10 µM |  | > 10 µM | > 10 µM | > 10 µM
COc1cc2ncn(-c3cc(OCc4ccccc4C(F)(F)F)c(C#N)s3)c2cc1OC [Example 146, 5-(5,6-Dimethoxy-1H-benzimidazol-1-yl)-1-{[2-(trifluoromethyl)benzyl]oxy}thiophene-2-carbonitrile] |  |  |  | 0.1 to 10 µM |  |  | 
NC(=O)c1sc(-n2cnc3ccccc32)cc1OCc1ccccc1C(F)(F)F [Example 116, 5-(1H-Benzimidazol-1-yl)-3-{[2-(trifluoromethyl)benzyl]oxy}thiophene-2-carboxamide] | 1 to 10 µM | > 10 µM | 1 to 10 µM |  | < 1 µM | < 1 µM | < 1 µM
O=C(NO)c1sc(-n2cnc3ccccc32)cc1OCc1ccccc1 [Example 144, 5-(1H-Benzimidazol-1-yl)-3-(benzyloxy)-N-hydroxythiophene-2-carboxamide] |  |  |  | 0.1 to 10 µM |  |  | 
NC(=O)c1sc(-n2cnc3ccccc32)cc1OCc1cccc(Cl)c1 [Example 15, 5-(1H-Benzimidazol-1-yl)-3-[(3-chlorobenzyl)oxy]-2-thiophenecarboxamide] |  |  |  | < 0.1 µM |  |  | 
COc1cccc(COc2cc(-n3cnc4ccccc43)sc2C(N)=O)c1 [Example 14, 5-(1H-Benzimidazol-1-yl)-3-[(3-methoxybenzyl)oxy]-2-thiophenecarboxamide] |  |  |  | < 0.1 µM |  |  | 
Cc1ccccc1COc1cc(-n2cnc3ccccc32)sc1C(N)=O [Example 4, 5-(1H-Benzimidazol-1-yl)-3-[(2-methylbenzyl)oxy]-2-thiophenecarboxamide] |  |  |  | < 0.1 µM |  |  | 
COc1cc2ncn(-c3cc(OCCCc4ccccc4)c(C(N)=O)s3)c2cc1OC [Example 115, 5-(5,6-Dimethoxy-1H-benzimidazol-1-yl)-3-(3-phenylpropoxy)thiophene-2-carboxamide] | > 10 µM | > 10 µM | 1 to 10 µM |  | 1 to 10 µM | 1 to 10 µM | 1 to 10 µM
COc1cc2ncn(-c3cc(OCc4ccccc4C(F)(F)F)c(-c4nnn[nH]4)s3)c2cc1OC [Example 147, 5,6-Dimethoxy-1-(5-(1H-tetraazol-5-yl)-4-{[2-(trifluoromethyl)-benzyl]oxy}thien-2-yl)-1H-benzimidazole] | > 10 µM | > 10 µM | > 10 µM |  | > 10 µM | > 10 µM | > 10 µM
COc1cc2ncn(-c3cc(OCCc4ccccc4)c(C(N)=O)s3)c2cc1OC [Example 114, 5-(5,6-Dimethoxy-1H-benzimidazol-1-yl)-3-(2-phenylethoxy)-thiophene-2-carboxamide] | > 10 µM | > 10 µM | > 10 µM |  | > 10 µM | > 10 µM | > 10 µM
NC(=O)c1sc(-n2cnc3cc(Cl)ccc32)cc1OCc1ccccc1 [Example 84, 3-(Benzyloxy)-5-(5-chloro-1H-benzimidazol-1-yl)thiophene-2-carboxamide] |  |  |  | < 0.1 µM |  |  | 
Cc1ccccc1COc1cc(-n2cnc3cc(O)ccc32)sc1C(=O)O [Example 141, 5-(5-Hydroxy-1H-benzimidazol-1-yl)-3-[(2-methylbenzyl)oxy]-thiophene-2-carboxylic acid] |  |  |  | < 0.1 µM |  |  | 
COc1cc2ncn(-c3cc(OCC4CCCCC4)c(C(N)=O)s3)c2cc1OC [Example 111, 3-(Cyclohexylmethoxy)-5-(5,6-dimethoxy-1H-benzimidazol-1-yl)thiophene-2-carboxamide] | > 10 µM | 1 to 10 µM | 1 to 10 µM |  | 1 to 10 µM | 1 to 10 µM | 1 to 10 µM
